According to the NIST ThermoML archive (doi:10.1016/j.jct.2010.08.006):
± gives the expanded uncertainty stated by the source.

Assays:
[1] = 101.33 kPa, Liquid, Vibrating tube method
[2] = xn = mol fraction of the nth substance listed; conditions: 101 kPa, Liquid, Vibrating tube method

C1CCOC1 [tetrahydrofuran]
[1]
Conditions	mass density [kg/m3]
278.15 K	903.71 ± 0.07
288.15 K	892.94 ± 0.08
298.15 K	882.04 ± 0.08
308.15 K	871.01 ± 0.09
318.15 K	859.84 ± 0.09

C1CCOC1 [tetrahydrofuran] + O
mass density [kg/m3], [2]
Conditions	278.15 K	288.15 K	298.15 K	308.15 K	318.15 K
x2 = 0.001775	903.78 ± 0.07	893.01 ± 0.08	882.11 ± 0.08	871.08 ± 0.09	859.91 ± 0.09
x2 = 0.003887	903.87 ± 0.07	893.1 ± 0.08	882.19 ± 0.08	871.16 ± 0.09	859.99 ± 0.09
x2 = 0.005362	903.93 ± 0.07	893.16 ± 0.08	882.25 ± 0.08	871.23 ± 0.09	860.05 ± 0.09
x2 = 0.007677	904.02 ± 0.07	893.25 ± 0.08	882.35 ± 0.08	871.32 ± 0.09	860.15 ± 0.09
x2 = 0.01096	904.16 ± 0.07	893.38 ± 0.08	882.48 ± 0.08	871.45 ± 0.09	860.28 ± 0.09
x2 = 0.0142	904.29 ± 0.07	893.52 ± 0.08	882.61 ± 0.08	871.58 ± 0.09	860.41 ± 0.09
x2 = 0.01729	904.42 ± 0.07	893.65 ± 0.08	882.74 ± 0.08	871.71 ± 0.09	860.53 ± 0.09
x2 = 0.01971	904.52 ± 0.07	893.75 ± 0.08	882.84 ± 0.08	871.81 ± 0.09	860.63 ± 0.09
x2 = 0.02568	904.78 ± 0.07	894 ± 0.08	883.09 ± 0.08	872.06 ± 0.09	860.88 ± 0.09
x2 = 0.03393	905.13 ± 0.07	894.35 ± 0.08	883.44 ± 0.08	872.41 ± 0.09	861.22 ± 0.09
x2 = 0.04278	905.52 ± 0.07	894.74 ± 0.08	883.83 ± 0.08	872.79 ± 0.09	861.6 ± 0.09

[2H]O[2H] [water-d2] + C1CCOC1
mass density [kg/m3], [2]
Conditions	278.15 K	288.15 K	298.15 K	308.15 K	318.15 K
x1 = 0.001848	903.83 ± 0.07	893.06 ± 0.08	882.16 ± 0.08	871.13 ± 0.09	859.96 ± 0.09
x1 = 0.003689	903.96 ± 0.07	893.18 ± 0.08	882.28 ± 0.08	871.25 ± 0.09	860.08 ± 0.09
x1 = 0.005866	904.1 ± 0.07	893.33 ± 0.08	882.43 ± 0.08	871.4 ± 0.09	860.22 ± 0.09
x1 = 0.008339	904.27 ± 0.07	893.5 ± 0.08	882.59 ± 0.08	871.56 ± 0.09	860.38 ± 0.09
x1 = 0.01068	904.43 ± 0.07	893.65 ± 0.08	882.75 ± 0.08	871.72 ± 0.09	860.54 ± 0.09
x1 = 0.01396	904.65 ± 0.07	893.88 ± 0.08	882.97 ± 0.08	871.93 ± 0.09	860.76 ± 0.09
x1 = 0.01768	904.91 ± 0.07	894.13 ± 0.08	883.23 ± 0.08	872.19 ± 0.09	861 ± 0.09
x1 = 0.0203	905.09 ± 0.07	894.31 ± 0.08	883.4 ± 0.08	872.36 ± 0.09	861.18 ± 0.09
x1 = 0.02398	905.35 ± 0.07	894.57 ± 0.08	883.66 ± 0.08	872.62 ± 0.09	861.43 ± 0.09
x1 = 0.02882	905.69 ± 0.07	894.9 ± 0.08	883.99 ± 0.08	872.95 ± 0.09	861.76 ± 0.09
x1 = 0.03403	906.06 ± 0.07	895.27 ± 0.08	884.36 ± 0.08	873.31 ± 0.09	862.11 ± 0.09
x1 = 0.03668	906.25 ± 0.07	895.46 ± 0.08	884.55 ± 0.08	873.49 ± 0.09	862.3 ± 0.09
x1 = 0.04255	906.67 ± 0.07	895.88 ± 0.08	884.96 ± 0.08	873.91 ± 0.09	862.71 ± 0.09
